From article PMC11192437, “Molecular and structural basis of oligopeptide recognition by the Ami transporter system in pneumococci” (PLOS Pathogens, 2024)

Assays:
[1] = biological target: AliC (residues 24–655), oligopeptide-binding lipoprotein of the Ami system, without the lipobox segment (Streptococcus pneumoniae); experiment: AUC; sedimentation velocity, 20 mM Tris–HCl pH 7.5, 20°C, 4.1 μM protein, c(s) distribution (SEDFIT)
[2] = biological target: AliC (residues 24–655), oligopeptide-binding lipoprotein of the Ami system, without the lipobox segment (Streptococcus pneumoniae); experiment: crystal structure; AliC in the open conformation, no peptide; 0.1 M Bis-Tris pH 6.5, 25% PEG3350; 2.38 Å; domain-swapped dimer
AliD [3] = experiment: Microscale thermophoresis (MST) peptide binding to AliD; parameters: species or system Streptococcus pneumoniae; conditions: 20 nM RED-NHS-labeled AliD, peptide 7.63x10^-6–0.125 mM in PBS, 25°C
Protocol: To investigate the conformational changes occurring in the Ami permease OBPs upon ligand binding, we synthesized specific peptides (Tables 1 and S2) previously reported to be substrates of these proteins. […] To verify specific binding of peptides to OBPs, binding of peptide 1 (FPPQSV), which is the natural substrate of AliD, and peptide 2 (AIQSEKARKHN) was measured to AliD by microscale thermophoresis (MST) (see methods). […] The crystal structure of the AliD:peptide 1 complex was obtained by co-crystallization (see Materials and Methods) at 2.18 Å resolution (Fig 3A).
Binding of peptides to heterologously expressed AliD was measured by microscale thermophoresis (MST). […] Analyzed peptides (1: FPPQSV and 2: AIQSEKARKHN) were diluted in PBS. […] Samples were loaded into standard capillaries (NanoTemper Technologies) and measured using the Monolith NT.115 machine (NanoTemper Technologies). […] Data of three independently conducted experiments were analyzed using the Mo.Affinity Analysis software version 2.3 from NanoTemper Technologies.
Supplementary file ppat.1011883.s017.tif: S6 Fig Peptide 1 structure in the AliD:peptide 1 complex. (A) Binding of peptide 1 and 2 to heterologously expressed AliD as analyzed by microscale thermophoresis (MST). […] Samples were measured using the Monolith NT.115 (NanoTemper Technologies) at 40% LED power and medium MST power at 25° C. […]

AliD [4] = conditions: peptide derived from Prevotella species; cited from earlier work
AliD [5] = conditions: peptide derived from Prevotella species; cited from earlier work; remark: listed apart in the source
AliB = conditions: S2 Table; previously reported to bind AliB; ref 10 (table adapted from Nasher et al; 2018); cited from earlier work
Text: Supplement ppat.1011883.s002.docx, table 1 | column: OBP

[6] = biological target: AliD (residues 28–652), oligopeptide-binding lipoprotein of the Ami system, without the lipobox segment (Streptococcus pneumoniae); experiment: MST; 20 nM RED-NHS-labelled AliD and unlabelled peptides (7.63x10^-6–0.125 mM) both in solution, PBS, 25°C, 40% LED power, medium MST power, Monolith NT.115; three independent experiments

AliC (residues 24–655), oligopeptide-binding lipoprotein of the Ami system, without the lipobox segment (natural protein)
stoichiometry N [1]: 2 | stoichiometry N [2]: 2

FPPQSV [Peptide 1, FPPQSV; Ribosome-associated GTPase EngA (Prevotella species)]
Binding to AliD (in words) (AliD [3]): concentration dependent binding | Gene expression change when bound by AliD (AliD [4]): significant changes in gene expression | Colonization when bound by AliD (AliD [5]): enhanced colonization

PIVGGHEGAGV [Peptide 3, …; NDMA-dependent alcohol dehydrogenase (multispecies)]
Corresponding OBP (AliB): AliB

Peptide 1 (FPPQSV)
Kd [6]: 3.44 µM

VMVKGPGPGREST [Peptide 4, …; 30S ribosomal protein S11 (multispecies)]
Corresponding OBP (AliB): AliB

AIQSEKARKHN [Peptide 2 (…)]
Kd [6]: 14.4 µM
